Assay results as given in patent US20190070165A1, “N-HYDROXYISOQUINOLINEDIONE INHIBITORS OF HBV REPLICATION” (Saint Louis University, priority 2016, published 2019).
Where two headings read alike, the source gives them in different places.

How the values were obtained:
HBV replication [1] = assay: HBV replication inhibition assay in HepDES19 cells (strand-preferential q-PCR); type: cell-based, Hepatitis B virus; conditions: Hepatitis B virus
Procedure: HBV replication assay. […] Cells were seeded into 6-well plates and incubated in DMEM/F12, 10% fetal bovine serum (FBS), 1% penicillin/streptomycin (P/S) with 1 μg/mL tetracycline. Tetracycline was withdrawn after 24 hours. The test compound was applied to duplicate wells 48 hours later in medium containing a final DMSO concentration of 1%, and medium containing the compound was refreshed daily for the following two days. Cells were harvested and non-encapsidated nucleic acids were digested with micrococcal nuclease (New England Biolabs). HBV DNA was purified from capsids using QIAamp Cador Pathogen Mini Kit (Qiagen) with proteinase K incubation overnight at 37° C. TaqMan PCR was performed for 40 cycles at an annealing temperature of 60° C.
Thirty-nine HID, HPD, flutimide, and related POH compounds (Structures shown in FIG. 3) were screened for their ability to inhibit HBV replication in HepDES19 cells. […] Inhibition was calculated as the amount of plus-polarity DNA relative to the DMSO treated controls.
Briefly, HepDES19 were seeded in 12-well plates at 2×10^5 cells per well in the absence of tetracycline. Test compound was applied to cells 48 hours after removal of tetracycline. […] HBV DNA was purified from capsids using a QIAamp pathogen minikit with proteinase K digestion extended to overnight at 37° C. TaqMan PCR was performed for 40 cycles with an annealing temperature of 60° C.

[2] = Neutral red (NR) cytotoxicity assay; type: cell-based; conditions: human, HepDES19 cells, read-out: Toxicity in HepDES19, NR (CC50)
Procedure: (§1) To further evaluate potential cytotoxicity of these hits, the effect of the compounds was determined for the uptake of neutral red (NR) by the lysosomes and lactate dehydrogenase (LDH) release into the supernatant due to cell membrane permeability. […] Overall, the TI values in Table 3 and FIG. 4 indicate that cytotoxicity was not the cause of antiviral efficacy, although it may have contributed to the apparent efficacy for #84, 85, 90, and 91, which all have TI values below 5.

MTT cytotoxicity assay = type: cell-based; conditions: human; Table 2, HepDES19 cells
Procedure: MTT cytotoxicity assays. 1.0×10^4 HepDES19 cells per well were seeded in 96-well plates and incubated in DMEM with 10% FBS plus 1% P/S, 1% non-essential amino acids, and 1% glutamine. Compounds were diluted in medium to the indicated concentrations plus 1% DMSO and added to cells 24 hours after plating, with each concentration tested in triplicate. Medium containing the compound was refreshed daily for the next two days. Thiazolyl blue tetrazolium bromide (MTT, Sigma-Aldrich) was added to 0.25 mg/mL, the cultures were incubated for 60 minutes, metabolites were solubilized in acidic isopropanol, and absorbance was read at 570 nm.

HBV RNaseH [3] = molecular target: T1, HBV RNaseH (Hepatitis B virus genotype D subtype ayw, UniProt P03156); assay: Molecular beacon RNaseH assay; conditions: for Inhibition of HBV RNaseH, Molecular Beacon cleavage assay: Table 3, 0 to 500 μM
Procedure: In this assay, a hairpin DNA oligonucleotide labeled with fluorescein on one end and a quencher on the other is held in a linear conformation by annealing to a complementary RNA; cleavage of the RNA causes the DNA to fold into a hairpin, suppressing fluorescence (FIG. 8A).
The substrate is a hairpin DNA oligonucleotide with a 5′ fluorescein reporter and a 3′ black hole quencher annealed to a complementary RNA oligonucleotide. The reaction was initiated by adding 5 mM Mg^++, and fluorescence was monitored at 37° C. with a Synergy 4 96-well plate reader. Inhibition was qualitatively determined as a dose-dependent reduction in the rate of substrate degradation.

HIV replication = conditions: literature values (Billamboz et al., 2011b; Suchaud et al., 2014); cited from earlier work
[4] = Lactate dehydrogenase (LDH) release cytotoxicity assay; type: cell-based; conditions: human, HepDES19 cells, read-out: Toxicity in HepDES19, LDH (CC50)
Procedure: as §1

[5] = MTS cytotoxicity assay (CellTiter 96); conditions: human
Procedure: (§2) HepDES19 cells were seeded at 1×10^4 cells per well in a 96 well plate in the absence of tetracycline. The test compounds were applied in triplicate to the cells 48 hours later and the cells were incubated for 72 hours. Cell viability was measured using the CellTiter 96 Aqueous Non-Radioactive Cell Proliferation Assay (Promega). [3-(4,5-dimethylthiazol-2-yl)-5-(3-carboxymethoxyphenyl)-2-(4-sulfophenyl)-2H-tetrazolium, inner salt] (MTS) and phenazine methosulfate (PMS) solution at 2 mg/mL MTS and 0.043 mg/mL PMS were added to the medium, the cells were incubated for two hours at 37° C., and absorbance was measured at 490 nm. […] Neutral red was added to the media at a final concentration of 40 μg/mL. Cells were washed with PBS and incubated with neutral red medium for two hours at 37° C. The neutral red medium was removed and the cells were washed with PBS. […] Lactate dehydrogenase (LDH) release was measured using the LDH-cytotoxicity colorimetric assay kit (BioVision). Cells were lysed with 1% Triton-X to provide the high control and DMSO vehicle treatment was the low control. Supernatants were collected and transferred to a fresh 96 well plate, and LDH reaction mixture containing the catalyst and dye solution was added. The reaction was incubated for 15-20 minutes at room temperature in a dark box and absorbance was measured at 490 nm. Percent cytotoxicity was calculated as [(test sample−low control)/([…])]×100.

HepDES19 cells = assay: MTS cytotoxicity assay (CellTiter 96); conditions: CC50 by MTS assay over EC50
Procedure: as §2

HBV RNaseH [6] = molecular target: T1, HBV RNaseH; conditions: for HBV RNaseH: Table 1, qualitative inhibition in biochemical assay; for Inhibition of HBV RNaseH, Oligonucleotide directed cleavage assay: Table 3, compounds at 100, 60 and 20 μM, compounds 1-91 and 138-140 previously reported (Cai et al., 2014)
Procedure: RNaseH expression and purification. […] The enriched extracts were dialyzed into 50 mM HEPES pH 7.3, 300 mM NaCl, 20% glycerol, and 5 mM DTT and stored in liquid nitrogen.
Oligonucleotide-directed RNA cleavage assay. […] This mixture was incubated with test compounds in 50 mM Tris pH 8.0, 190 mM NaCl, 5 mM MgCl2, 3.5 mM DTT, 0.05% NP40, 6% glycerol, and 1% DMSO at 42° C. for 90 minutes. Cleavage products were resolved by denaturing polyacrylamide gel electrophoresis, detected by autoradiography, and quantified using ImageJ. Non-specific background values were determined from the incorrect oligonucleotide negative control lane and subtracted from all experimental values. IC50 values were then calculated with GraphPad Prism using three-parameter log(inhibitor) vs. response non-linear curve fitting with the curve minimum set to zero to reflect background subtraction.
The HBV RNaseH inhibition activity of the 16 previously untested compounds was examined using an oligonucleotide-directed cleavage assay. Compounds were incubated with the HBV RNaseH, a ^32P-labeled RNA substrate plus a complementary DNA oligonucleotide and compounds at 100, 60, and 20 μM and the amount of the RNA cleavage products was measured following resolution on an acrylamide gel.
Briefly, a ^32P-labeled RNA was combined with a DNA oligonucleotide and the RNA:DNA substrate was incubated in the presence of the RNaseH and test compounds in 50 mM tris pH 8.0, 190 mM NaCl, 5 mM MgCl2, 3.5 mM DTT, 0.05% NP40, 6% glycerol, and 1% DMSO at 42° C. for 90 minutes. The products were resolved by gel electrophoresis and detected by audioradioagraphy.

human RNaseH1 = molecular target: T2, human RNaseH1 (Homo sapiens, UniProt O60930); assay: Oligonucleotide-directed RNA cleavage assay, human RNaseH1; type: biochemical; conditions: Table 1, quantitative values
T2 construct: made in house; host or cells: E. coli
T2 sequence (O60930 1-286): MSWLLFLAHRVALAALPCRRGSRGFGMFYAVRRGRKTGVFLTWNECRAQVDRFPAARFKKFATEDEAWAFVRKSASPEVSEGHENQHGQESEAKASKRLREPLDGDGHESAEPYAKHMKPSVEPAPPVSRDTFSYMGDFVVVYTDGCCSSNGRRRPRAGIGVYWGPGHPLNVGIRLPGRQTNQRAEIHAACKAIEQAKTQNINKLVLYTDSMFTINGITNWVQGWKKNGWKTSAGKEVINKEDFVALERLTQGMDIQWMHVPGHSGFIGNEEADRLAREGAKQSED
Excerpt: RNaseH expression and purification.
Oligonucleotide-directed RNA cleavage assay.

HSV-1 = HSV-1 replication inhibition assay in Vero cells; type: cell-based, herpes simplex virus 1; conditions: read-out: HSV-1 suppression (log10 at 5 μM), class symbol
Procedure: Thirty-seven compounds were counter-screened for efficacy against HSV-1 to evaluate specificity of the inhibitors and to help determine if the efficacy against HBV replication may be due to an unsuspected indirect effect on the cells. Vero cells infected with HSV-1 at an MOI of 0.1 were treated with 5 μM of compound for 24 hours. Inhibition was calculated as log 10 suppression of plaque forming units compared with DMSO vehicle control.
Vero cells were maintained DMEM supplemented with 3% newborn calf serum, 3% bovine growth serum, 2 mM L-glutamine, and P/S. Test compounds were applied to the cells in the presence of 0.05% DMSO. The herpes simplex virus 1 (HSV-1) strain used for screening was a de-identified clinical isolate from the Saint Louis University Hospital passaged once in culture.
Compounds and virus were diluted in phosphate buffered saline (PBS) containing 2% newborn calf serum and 2 mM L-glutamine so that the final concentration of compound was 5 μM. The cells were incubated at 37° C. for 1 hour with the virus containing inoculum, then the inoculum was removed and the wells were washed once in PBS. Compound diluted to 5 μM in supplemented DMEM was added and cells were incubated at 37° C. for an additional 23 hours. The plates were then microscopically inspected for cytopathic effect (CPE) or toxicity and then frozen at −80° C. Virus titers for wells with limited CPE compared to DMSO vehicle-treated controls were then determined by plaque assay on Vero cells. Each experiment was repeated at least once.

HBV replication [7] = assay: Chou-Talalay synergy analysis with Lamivudine against HBV replication; conditions: CI <1.0 indicates synergy
Procedure: Chou-Talaly analysis yields a combination index (CI). CI values <1.0 indicate synergy, CIs of approximately 1.0 indicate additive interactions, and CI values >1.0 indicate antagonism. CI values are calculated at various efficacy levels (EC50, EC75, EC90, and EC95), and a weighted CI value favoring higher efficacy levels is also generated.

[8] = tested on: patient-derived RNAseH enzymes; assay: Biochemical RNAseH assay with variant patient-derived RNAseH enzymes; parameters: species or system Hepatitis B virus; conditions: compounds at their respective IC50 values, four genotype D enzymes
Procedure: HBV has 8 genotypes differing in sequence by 8%. Genetic diversity in the RNAseH domain is about 6%, which is easily high enough to modulate viral sensitivity to RNAseH inhibitors. […] Twelve purified, patient-derived RNAseH enzymes (4 from each genotypes B, C and D) were tested with the compounds at their respective IC50 values in a biochemical RNAseH assay. […] Equivalent results were obtained for all 12 enzymes against compounds #1 and #46. Therefore, HBV's high genetic variation is unlikely to present a substantial barrier to drug development.

[9] = HepDES19, read-out: HBV replication inhibition (EC50, μm)
[10] = HepDES19 cells, read-out: EC50, HBV replication
[11] = Table 2, HepDES19 cells, read-out: EC50

T1 sequence (P03156 671-832): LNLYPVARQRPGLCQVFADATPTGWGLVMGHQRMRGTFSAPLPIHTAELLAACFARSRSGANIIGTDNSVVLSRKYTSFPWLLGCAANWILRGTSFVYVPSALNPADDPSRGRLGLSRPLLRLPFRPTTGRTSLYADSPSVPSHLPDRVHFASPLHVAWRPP

Question: For O=C(Nc1ccc2c(c1)C(=O)N(O)C(=O)C2C(=O)NCc1ccc(F)cc1)c1ccccc1 (stereo not drawn) [Compound 86], which EC50 (HBV replication [1]; [9]) is on record?
Answer: Its EC50 is 1.4 ± 0.3 µM.

Question: What about the EC50 (HBV replication [1]; [10]) of the same compound?
Answer: The EC50 was 1.4 µM.

Question: What about the EC50 (HBV replication [1]; [11]) of the same compound?
Answer: The EC50 was 1.4 µM.

Question: And the CC50 at 72 h [2]?
Answer: Its CC50 at 72 h is 52 ± 11 µM.

Question: And the CC50 (MTT cytotoxicity assay)?
Answer: The CC50 was over 100 µM.

Question: And the “Inhibition of HBV RNaseH, Molecular Beacon cleavage assay” value (HBV RNaseH [3])?
Answer: Its value is “− (No inhibition detected at 500 μM)”.

Question: What about the EC50 (HIV replication) of the same compound?
Answer: Its EC50 is over 21 µM.

Question: What about the CC50 at 72 h [4] of the same compound?
Answer: Its CC50 at 72 h is over 100 µM.

Question: What about the CC50 at 72 h [5] of the same compound?
Answer: The CC50 at 72 h was 99 ± 2 µM.

Question: What about the “TI (therapeutic index, CC50(MTS)/EC50)” value (HepDES19 cells) of the same compound?
Answer: The value was 71.

Question: What about the “HBV RNaseH” value (HBV RNaseH [6]) of the same compound?
Answer: The value was “+/−”.

Question: What about the “Inhibition of HBV RNaseH, Oligonucleotide directed cleavage assay” value (HBV RNaseH [6]) of the same compound?
Answer: The value was “− (No inhibition detected at 100 μM)”.

Question: And the IC50 (human RNaseH1)?
Answer: Its IC50 is 4 µM.

Question: What about the log reduction at 5 µM (HSV-1; Human alphaherpesvirus 1, 24 h, 5 μM, Vero cells) of the same compound?
Answer: The log reduction at 5 µM was under 1.

Question: For COC(=O)C1C(=O)N(O)C(=O)c2ccccc21 (stereo not drawn) [Compound 81], which EC50 (HBV replication [1]; [9]) is on record?
Answer: Its EC50 is 4.4 ± 3 µM.

Question: And the EC50 (HBV replication [1]; [10])?
Answer: Its EC50 is 4.4 µM.

Question: What about the EC50 (HBV replication [1]; [11]) of the same compound?
Answer: The EC50 was 4 µM.

Question: And the “inhibition in the molecular beacon assay” value (HBV RNaseH [3]; 2.1 μg purified HBV RNaseH)?
Answer: Its value is “inhibited”.

Question: What about the “Inhibition of HBV RNaseH, Molecular Beacon cleavage assay” value (HBV RNaseH [3]) of the same compound?
Answer: Its value is “+ (Dose-dependent inhibition at ≤500 μM)”.

Question: What about the EC50 (HIV replication) of the same compound?
Answer: The EC50 was 13.4 µM.

Question: What about the “HBV RNaseH” value (HBV RNaseH [6]) of the same compound?
Answer: Its value is “+/−”.

Question: What about the “Inhibition of HBV RNaseH, Oligonucleotide directed cleavage assay” value (HBV RNaseH [6]) of the same compound?
Answer: Its value is “− (No inhibition detected at 100 μM)”.

Question: What about the “inhibition of RNA cleavage by HBV RNaseH” value (HBV RNaseH [6]; compounds at 100, 60 and 20 μM) of the same compound?
Answer: The value was “negative”.

Question: And the IC50 (human RNaseH1)?
Answer: The IC50 was 4.9 µM.

Question: And the log reduction at 5 µM (HSV-1; Human alphaherpesvirus 1, Vero, 24 h)?
Answer: The log reduction at 5 µM was under 1.

Question: Which results are given for CC(C)c1ccc(O)c(=O)c(O)c1 [Compound 46, β-thujaplicinol, reference compound]?
Answer: weighted combination index (CI) with Lamivudine (HBV replication [7]): 0.44±0.3; inhibition of variant genotype D RNAseH enzymes [8]: about 50%
